The target in the test is Neurotensin receptor type 2 (Homo sapiens) (UniProt O95665). Description: beta-arrestin recruitment via NTR2 activation – imaging, NTR2-U2OS cells, beta-arrestin GFP imaging, selectivity assay for NTR1 agonist project, SAR follow-up (AID 588495). The following applies: image-based GFP translocation. For orientation: Activated receptors often draw arrestin, which recruitment assays turn into a signal.

Active and inactive are the calls of the source.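 The calls were made as follows: active = mean EC50 of 20 µM or lower; inactive = the rest.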

Usually EC50 stands for the concentration giving half of the maximal effect.

Chain of Neurotensin receptor type 2 (Homo sapiens) (O95665 whole entry, looked up): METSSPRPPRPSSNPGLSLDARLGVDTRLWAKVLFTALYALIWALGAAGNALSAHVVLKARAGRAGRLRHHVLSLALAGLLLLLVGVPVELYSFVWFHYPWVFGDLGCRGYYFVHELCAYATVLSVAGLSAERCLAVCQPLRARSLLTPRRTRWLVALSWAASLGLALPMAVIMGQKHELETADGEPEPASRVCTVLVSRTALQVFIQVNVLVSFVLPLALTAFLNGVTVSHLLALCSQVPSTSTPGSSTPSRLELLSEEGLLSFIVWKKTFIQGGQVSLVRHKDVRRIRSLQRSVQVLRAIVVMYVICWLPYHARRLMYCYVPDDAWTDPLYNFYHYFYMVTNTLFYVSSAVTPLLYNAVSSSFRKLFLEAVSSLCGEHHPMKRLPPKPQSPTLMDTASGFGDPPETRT

Turning to `Cc1ccc(-n2ncc3c(N4CCN(c5ccccc5F)CC4)ncnc32)c(C)c1`, the EC50 is > 40 µM (inactive).

Regarding `CCN(CC)c1ccc(/C=N/Nc2nc(-c3ccc(S(=O)(=O)N(C)C)cc3)cs2)cc1`, the EC50 was > 40 µM (inactive).

With `COc1cccc(OC)c1-c1nc(C(=O)N[C@@H](CC(C)C)C(=O)O)cn1-c1ccnc2cc(Cl)ccc12`, the EC50 is > 40 µM (inactive). On to `COc1cccc2c(C(=O)N[C@@H](CC(C)C)C(=O)O)cn(-c3ccnc4cc(Cl)ccc34)c12`, for which the EC50 was > 40 µM (inactive). Then `CC(C)C[C@H](NC(=O)c1cn(-c2ccnc3ccccc23)c2ccccc12)C(=O)O`, with > 40 µM (inactive); and `CCCSc1nc2cc(OC)c(OC)cc2c(=N)n1Cc1ccccc1Cl`, with > 40 µM (inactive); and `COc1cc2nc(C)nc(N3CCN(c4ccccc4OC)CC3)c2cc1OC`, with > 40 µM (inactive).

On to `COc1cc2nc(-c3ccccc3)nc(N3CCN(c4ccccc4F)CC3)c2cc1OC`, for which the EC50 was > 40 µM (inactive). As for `COc1ccc(Cn2c(SCc3cccc(C(F)(F)F)c3)nc3cc(OC)c(OC)cc3c2=N)cc1Cl`, the EC50 is > 40 µM (inactive). In the case of `COc1cc2c3nnc(-c4ccccc4)c-3cn(Cc3ccc(F)cc3)c2cc1OC`, the EC50 is > 40 µM (inactive). Regarding `Cc1ccc(-n2ncc3c(N4CCN(c5cc(C)ccc5C)CC4)ncnc32)c(C)c1`, the EC50 was > 40 µM (inactive).

As to `COc1ccccc1-c1nc(C(=O)N[C@@H](CC(C)C)C(=O)O)cn1-c1ccnc2cc(Cl)ccc12`, the EC50 is > 40 µM (inactive). The result for `CC(C)C[C@H](NC(=O)c1cn(-c2ccncc2)c(-c2ccccc2)n1)C(=O)O` reads > 40 µM (inactive); that for `Cc1ccc(-n2ncc3c(N4CCN(c5ccc(Cl)c(Cl)c5)CC4)ncnc32)c(C)c1`, > 40 µM (inactive).

With `COc1cc2nc(-c3ccccc3)nc(N3CCN(c4ccc(Cl)cc4)CC3)c2cc1OC`, the EC50 is > 40 µM (inactive). On to `COc1cc2nc(-c3ccccc3)nc(N3CCN(c4ccc(F)cc4)CC3)c2cc1OC`, for which the EC50 is > 40 µM (inactive). For the molecule `COc1cccc(OC)c1-c1nc(C(=O)N[C@@H](CC(C)C)C(=O)O)cn1-c1ccc(C)cc1`, the EC50 was > 40 µM (inactive). For `COc1ccccc1-c1nc(C(=O)N[C@@H](CC(C)C)C(=O)O)cn1-c1ccnc2ccccc12`, the EC50 was > 40 µM (inactive). `COc1ccc(Cn2c(SCc3ccc(C)cc3)nc3cc(OC)c(OC)cc3c2=N)cc1Cl`: the EC50 was > 40 µM (inactive). For the molecule `Cc1ccc(-n2ncc3c(N4CCN(c5cccc(Cl)c5)CC4)ncnc32)c(C)c1`, the EC50 was > 40 µM (inactive). The result for `CCN(CC)S(=O)(=O)c1ccc(-c2csc(N/N=C/c3ccco3)n2)cc1` reads > 40 µM (inactive). Then `COc1cc2nc(C3CCC3)nc(N3CCN(c4ccccc4Cl)CC3)c2cc1OC`, with > 40 µM (inactive). As to `COc1ccc(Cn2c(SCc3cc(C)ccc3C)nc3cc(OC)c(OC)cc3c2=N)cc1Cl`, the EC50 was > 40 µM (inactive). Take `Cc1ccc(/C=N/Nc2nc(-c3ccc(S(=O)(=O)N(C)C)cc3)cs2)cc1`: the EC50 was > 40 µM (inactive).

In the case of `CN(C)S(=O)(=O)c1ccc(-c2csc(N/N=C/c3cccs3)n2)cc1`, the EC50 was > 40 µM (inactive). Then `COc1cc2c3nnc(-c4ccc(C)c(C)c4)c-3cn(Cc3ccccc3)c2cc1OC`, with > 40 µM (inactive); and `Cc1cccc(-n2ncc3c(N4CCN(c5ccccc5)CC4)ncnc32)c1`, with > 40 µM (inactive). With `CN(C)S(=O)(=O)c1ccc(-c2csc(N/N=C/c3cccc(Cl)c3)n2)cc1`, the EC50 is > 40 µM (inactive). Regarding `COc1ccc(Cn2c(SCc3ccccc3C)nc3cc(OC)c(OC)cc3c2=N)cc1Cl`, the EC50 is > 40 µM (inactive).

Consider `COc1cc2c3nnc(-c4ccccc4)c-3cn(Cc3ccc(C)cc3)c2cc1OC`, for which the EC50 was > 40 µM (inactive).

For `COc1cccc(N2CCN(c3nc(C4CCC4)nc4cc(OC)c(OC)cc34)CC2)c1`, the EC50 is > 40 µM (inactive). Then `COc1ccc(N2CCN(c3nc(C4CCC4)nc4cc(OC)c(OC)cc34)CC2)cc1`, with > 40 µM (inactive); and `CC(C)C[C@H](NC(=O)c1cn(-c2ccnc3cc(Cl)ccc23)c2ccccc12)C(=O)O`, with > 40 µM (inactive); and `COc1cccc(OC)c1-c1nc(C(=O)NC2(C(=O)O)C3CC4CC(C3)CC2C4)cn1-c1ccnc2cc(Cl)ccc12` (configuration not stated), with > 40 µM (inactive). As to `COc1ccc2c(c1)c1nnc(-c3ccc(F)cc3)c-1cn2Cc1ccc(C)cc1`, the EC50 was > 40 µM (inactive).

For the molecule `COc1cc2nc(C3CCC3)nc(N3CCN(c4ccccc4OC)CC3)c2cc1OC`, the EC50 was > 40 µM (inactive). Turning to `CC(C)C[C@H](NC(=O)c1nc(-c2ccnc3ccccc23)c(-c2ccccc2)s1)C(=O)O`, the EC50 was > 40 µM (inactive).

The values are drawn from PubChem BioAssay AID588495 (Sanford-Burnham Center for Chemical Genomics, 2011).
